# Reference: patent publication US20250084177A1, “ANTI-CD98 ANTIBODIES AND USES THEREOF” (HUAHUI HEALTH LTD., priority 2021, published 2025)
# Biological target: T1, LAT1/CD98 heterodimer HAT complex (Homo sapiens, UniProt P08195+Q01650)
# T1 construct: in the tumor cell lines earlier found to be highly sensitive to S1-F4 treatment; endogenous in cells
# Test: Amino acid (HPG) uptake assay
# Type: cell-based
# Conditions: HepG2 and Raji cells; antibody 15 μg/ml, BCH 10 mM
# Protocol: Cells were incubated with 15 μg/ml antibody for 24 hr in growth medium. Then they were equilibrated for 30 min at 37° C. with Met-free DMEM. HPG (Thermo Fisher Scientific) was added to the cells at a final concentration of 70 μM. […] After 2-3 hr, cells were washed with PBS and lysed with lysis buffer (1% SDS in 50 mM Tris-HCL, pH 8.0) with complete protease inhibitors (Roche). HPG in cell lysis was biotinylated according to manufacturer instructions (Thermo Fisher Scientific). Then cell lysis was transferred into 96 well plate (Nunc, MaxiSorp™) and incubated at 4° C. overnight. The amount of HGP in cell lysates was then detected by streptavidin-HRP (Thermo Fisher Scientific) in an ELISA-based assay.
# Amino acid uptake assay was conducted to analyze the effect of S1-F4 in amino acid transport. L-Homopropargylglycine (HPG), a methionine mimic, was used as a traceable substrate for the LAT1 (L-type/large neutral amino acid transporter 1)/CD98 heterodimer HAT complex, and the LAT1/CD98 complex inhibitor BCH (2-amino-2-norbornane-carboxylic acid) was used as a positive control for disrupting transport function.
# T1 sequence (P08195 103-630 limits assumed): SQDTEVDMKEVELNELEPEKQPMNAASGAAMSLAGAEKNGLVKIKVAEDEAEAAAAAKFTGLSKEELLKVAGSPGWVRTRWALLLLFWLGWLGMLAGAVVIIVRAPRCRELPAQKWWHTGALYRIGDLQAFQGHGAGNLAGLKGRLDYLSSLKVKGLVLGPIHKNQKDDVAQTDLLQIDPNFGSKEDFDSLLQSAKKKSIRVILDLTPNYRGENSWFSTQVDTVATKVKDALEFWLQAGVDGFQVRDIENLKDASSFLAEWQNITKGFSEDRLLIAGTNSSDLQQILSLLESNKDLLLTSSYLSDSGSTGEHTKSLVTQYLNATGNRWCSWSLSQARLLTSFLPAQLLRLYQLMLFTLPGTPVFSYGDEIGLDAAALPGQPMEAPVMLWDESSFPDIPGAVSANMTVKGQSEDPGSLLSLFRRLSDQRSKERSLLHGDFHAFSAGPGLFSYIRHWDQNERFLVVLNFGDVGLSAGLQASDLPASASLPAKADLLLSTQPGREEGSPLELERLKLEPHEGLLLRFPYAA
# T1 sequence (Q01650 whole entry): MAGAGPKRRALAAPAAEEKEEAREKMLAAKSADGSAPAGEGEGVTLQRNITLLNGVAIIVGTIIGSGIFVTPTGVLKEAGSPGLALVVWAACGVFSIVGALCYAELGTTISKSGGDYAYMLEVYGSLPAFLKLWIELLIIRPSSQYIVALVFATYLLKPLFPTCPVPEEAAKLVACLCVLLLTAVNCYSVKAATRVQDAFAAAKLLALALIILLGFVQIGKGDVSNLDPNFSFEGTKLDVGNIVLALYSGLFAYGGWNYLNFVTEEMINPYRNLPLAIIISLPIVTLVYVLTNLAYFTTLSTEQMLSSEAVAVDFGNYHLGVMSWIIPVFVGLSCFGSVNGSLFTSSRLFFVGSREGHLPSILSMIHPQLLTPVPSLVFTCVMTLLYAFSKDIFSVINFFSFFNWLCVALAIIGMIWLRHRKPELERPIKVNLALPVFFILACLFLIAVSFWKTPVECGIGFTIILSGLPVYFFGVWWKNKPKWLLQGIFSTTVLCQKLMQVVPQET
smiles,measurement,value
"NC1(C(=O)O)CC2CCC1C2 (stereo not shown) [BCH, 2-amino-2-norbornane-carboxylic acid]",HPG uptake / HAT complex transport activity,impaired HAT complex transport activity
